From paper PMC3251867 (British Journal of Cancer, 2011)
Where “and” joins values, the source holds several entries; their conditions need not be identical. Identical values can stand only once. Entries after “also recorded” stand apart in the source; their conditions may differ. Like-named read-outs stand apart in the source and are kept apart here. Marks after values point to notes of the source that are not given here.

Key:
[1] = parameters: method as in Thurn et al, 2011; settings: CRA after administration of a similar dose; ref Thurn et al, 2011; cited from earlier work
[2] = CRA trough plasma concentrations (LC-MS/MS); format: in vivo, human
Method: Cis retinoic acid PK studies were performed during the first 2 cycles of therapy. Serial sampling of venous blood was obtained at the following times: pre-treatment on Cycle 1, days 1, 2, 3, 4, 8, and 15 and pre-treatment on Cycle 2, days 1, 15, 16, 17, and 22. Blood samples were collected in heparinised tubes and were processed by centrifugation within 30 min at 1000 g at 4 °C for 10 min. Plasma was stored at −20 °C until analysis using a validated LC-MS/MS analytical method. Briefly, 1 ml plasma was extracted with 5 ml of acetonitrile/n-Butyl chloride (1 : 4, v/v) containing paclitaxel. Cis retinoic acid was separated on a Waters (Milford, MA, USA) X-Terra MS C18 (50 × 2.1 mm, 3.5 μm) column with 0.1% formic acid in acetonitrile/10 mM ammonium acetate (80 : 20, v/v) using isocratic flow of 0.2 ml min^−1 for 5 min. Cis retinoic acid was quantitated over the range of 5–2000 ng ml^−1. Quality control samples were assayed with each analytic run and were within 15% of the nominal concentration. […] Cmin at steady state (Css,min) was calculated for each patient by taking the average of the Cmin during each cycle.
Descriptive statistics were used to summarise patient characteristics, efficacy, and safety data. […] Differences between CRA Css,min during each cycle were evaluated statistically by use of a non-parametric, 2-sided Wilcoxon signed rank test for paired observations. […]

[3] = Entinostat plasma pharmacokinetics (LC-MS/MS, non-compartmental analysis); format: in vivo, human; settings: for Cls/F (apparent oral clearance) / half-life / Tmax / Cmax / AUC: plasma; for half-life / Tmax / Cmax / AUC: human; for AUC: read-out: AUC0−∝
Method: Pharmacokinetic studies were performed during the first 2 cycles of therapy. […] Blood samples were collected in heparinised tubes and were processed by centrifugation at 1000 g for 10 min. Plasma was stored at −20 °C until analysis. […] Quality control samples were assayed with each analytic run and were within 15% of the nominal concentration. Individual PK parameters were estimated by standard non-compartmental analysis, which was performed using WinNonlin, Version 5.3 (Pharsight Corporation, Mountain View, CA, USA; [Gibaldi, 1982]). Descriptive statistics were used to summarise patient characteristics, efficacy, and safety data. Pharmacokinetic parameters were summarised by descriptive statistics using dose-normalised parameters for dose-dependent parameters and actual values for dose-independent parameters. Kruskal–Wallis analysis of variance by ranks or the Wilcoxon rank-sum were used to compare the differences in entinostat PK parameters and CRA Css,min as a function of dose level. […] Statistical calculations were performed with the software package JMP, Version 4.0.4 (SAS Institute, Cary, NC, USA). The a priori level of significance was set at P<0.05.

[4] = parameters: method as in Gore et al, 2008; settings: entinostat single agent, 7- or 14-day schedule; ref Gore et al, 2008; cited from earlier work
[5] = test system: acetylated H3 in tumour tissue; experiment: Western blot of tumour FNA: acetylated H3; format: in vivo, human; settings: FNA of liver lesion, patient with metastatic prostate cancer; entinostat with CRA
Method: (§1) A pre-treatment sample was taken on day 15. During Cycle 2, and subsequent cycles, samples were collected pre-treatment on days 1 and 15. […] Peripheral blood mononuclear cells were collected from patients according to the study calendar schedule. For isolation of PBMCs, 10 ml of blood were collected in CPT tubes (Vacutainer CPT Cell Preparation Tube with NC: 0.45 ml; Ficoll: 1.0 ml; Becton Dickinson, Franklin Lakes, NJ, USA) and plasma was separated by centrifugation. Differential centrifugation of plasma was performed to isolate PBMCs, which were kept frozen at −80 °C until the end of the study schedule for each patient. Fine needle aspiration (FNA) was planned on Cycle 1, day 22 in patients with accessible tumours to assess changes in acetylation and signalling pathway expression. For western blotting, PBMCs and tumour tissue were lysed in M-PER mammalian protein extraction reagent (Pierce, Rockford, IL, USA) with protease inhibitor cocktail (Roche Diagnostics, Indianapolis, IN, USA), followed by brief sonication. Proteins (20 μg per lane) from cell lysates were applied to 4–15% Tris-HCl gels (Bio-Rad, Hercules, CA, USA) and blotted with primary antibodies that were purchased from Upstate (Lake Placid, NY, USA) for anti-acetyl histone H3 and from Sigma (St Louis, MO, USA) for β-actin clone A1978, ERK, and phosphorylated ERK.

[6] = test system: phosphorylated ERK in tumour tissue; experiment: Western blot of tumour FNA: phosphorylated ERK; format: in vivo, human; settings: FNA of liver lesion, patient with metastatic prostate cancer; entinostat with CRA
Method: as §1

[7] = test system: histone H3 acetylation in PBMCs; experiment: Western blot of histone H3 acetylation in PBMCs; format: in vivo, human; settings: pre-treatment vs post-treatment time points, entinostat with CRA
Method: as §1

[8] = test system: human prostate cancer cell line (LAPC4); experiment: PSA secretion and PSA gene expression in LAPC4 cells in vitro; format: cell-based
Source text: The sudden rise of tumour marker CA 19-9 in a patient with unresectable pancreatic cancer was worrisome for a rapid clinical progression. However, the CT scan documented stable disease for 6 months. […] An increase in the PSA slope occurred while on treatment, with a rapid deflection following treatment discontinuation. […] This observation poses some challenges as in the clinical development of ‘differentiation’ therapies increasing tumour marker levels may not be a significant sign for disease progression, but rather a potential signal of biological activity. […] Accordingly, the use of tumour markers for disease response assessment is evolving and needs to be further validated in prospective studies. Recently, the Prostate Cancer Clinical Trials Working Group recommended that in most clinical trials early changes in PSA should not be acted on without other evidence of disease progression, and treatment should be continued for at least 12 weeks to ensure adequate drug exposure ([Scher et al, 2008]).

[9] = entinostat oral once weekly (fasting) with 1 mg kg^−1 CRA
Method: A starting dose of 4 mg m^−2 and a fixed CRA dose at 1 mg kg^−1 per dose level were planned. If a patient experienced toxicities the next lower level was 2 mg m^−2. […] Originally six dose levels were included ([…]). Each cohort consisted of three patients according to the standard 3+3 design, where if one patient experiences a DLT, three additional patients are enroled.
Dose-limiting toxicity was defined as first cycle adverse events ⩾grade 3 non-haematological or ⩾grade 4 haematological toxicities. The MTD was defined as one dose level below the dose at which ⩾ two of six patients experience DLT. […] Tumour response assessment was performed every two cycles (2 months) by both clinical assessment and imaging studies.

Q: Which steady-state trough concentrations [1] does the source give for `CC1=C(/C=C/C(C)=C/C=C/C(C)=C\C(=O)O)C(C)(C)CCC1` [CRA, 13-cis retinoic acid] here?
A: 160 ± 19 ng/mL

Q: What about the “average Css,min” value ([2]; Cycle 1, CRA 1 mg kg^−1 per day oral with entinostat) of the same molecule?
A: 194.9 ± 103.5 ng/mL

Q: And the “average Css,min” value ([2]; Cycle 2, CRA 1 mg kg^−1 per day oral with entinostat)?
A: 131.8 ± 79.3 ng/mL

Q: For `Nc1ccccc1NC(=O)c1ccc(CNC(=O)OCc2cccnc2)cc1` [entinostat], which “patients with measurable entinostat concentrations” value ([3]; 1 week post-treatment) is on record?
A: 14 of 17

Q: What about the “Cls/F (apparent oral clearance)” value ([3]; all dose levels (Total) with CRA, Cycle 1, day 1, mean±s.d., n=13) of the same molecule?
A: 14.9±22.0 ^c l h^−1 m^−2

Q: What about the “Cls/F (apparent oral clearance)” value ([3]; all dose levels (Total) with CRA, Cycle 1, day 1, mean±s.d., n=13, listed as Entinostat) of the same molecule?
A: 14.9±22.0 l h^−1 m^−2

Q: What about the variability in clearance ([3]; entinostat with CRA, patients with solid tumours) of the same molecule?
A: 147%

Q: What about the half-life ([3]; oral, all dose levels (Total) with CRA, Cycle 1, day 1, mean±s.d., n=13, read-out: T1/2 (terminal half-life) (converted)) of the same molecule?
A: 114 ± 78.2 h

Q: What about the Tmax ([3]; oral, all dose levels (Total, 4 and 5 mg m^−2) with CRA, Cycle 1, day 1, median (range), 18 patients) of the same molecule?
A: 0.42 h

Q: And the Cmax ([3]; po, 4 mg m^−2)?
A: 114 ± 84 ng/mL

Q: And the Tmax ([3]; po, 4 mg m^−2)?
A: 0.5 h

Q: What about the AUC ([3]; po, 4 mg m^−2) of the same molecule?
A: 587 ± 401 ng·h/mL

Q: And the half-life ([3]; po, 4 mg m^−2, read-out: T1/2 (converted))?
A: 130 ± 88.5 h

Q: What about the Cmax ([3]; po, 5 mg m^−2) of the same molecule?
A: 109 ± 66 ng/mL

Q: And the Tmax ([3]; po, 5 mg m^−2)?
A: 0.25 h

Q: What about the AUC ([3]; po, 5 mg m^−2) of the same molecule?
A: 778 ± 648 ng·h/mL

Q: What about the half-life ([3]; po, 5 mg m^−2, read-out: T1/2 (converted)) of the same molecule?
A: 77.3 ± 31.9 h

Q: What about the Tmax [4] of the same molecule?
A: ≤ 1 h

Q: And the variability in clearance [4]?
A: 24–68%

Q: And the “intra-tumoural acetylated H3” value [5]?
A: increased; also recorded: induction

Q: And the “phosphorylated ERK protein levels in tumour” value [6]?
A: decreased; also recorded: inhibition

Q: And the “histone H3 acetylation in PBMCs” value [7]?
A: transient increased acetylation

Q: What about the PSA gene expression [8] of the same molecule?
A: no change

Q: And the “increase in PSA secretion into the culture media” value ([8]; achievable plasma concentrations of entinostat, data not shown)?
A: 2.5 fold

Q: And the “maximum tolerated dose (MTD)” value [9]?
A: < 5 mg m^−2 and 4 mg m^−2
